From patent US20160122320A1, “USEFUL COMBINATIONS OF MONOBACTAM ANTIBIOTICS WITH BETA-LACTAMASE INHIBITORS” (Basilea Pharmaceutica AG, priority 2005, published 2016)
Structures can show the parent of a compound that is named as a salt.

Assays:
Experiment in all cases: MIC, NCCLS broth microdilution
Assay type in all cases: cell-based
Acinetobacter sp. J2 = settings: for MIC of antibiotic at fixed inhibitor concentration (4 mg/L): Acinetobacter sp. J2, MIC of antibiotic compound 1 with the labelled bridged monobactam of formula II and clavulanate, 4 mg/L each
[1] = test system: Pseudomonas aeruginosa MK1184; settings: for MIC of antibiotic at fixed inhibitor concentration (4 mg/L): MIC of antibiotic compound 1 with the labelled bridged monobactam of formula II and clavulanate, 4 mg/L each
Protocol: (§1) Antimicrobial activity of the compounds and of their combinations was determined against a selection of organisms according to the standard procedures described by the National Committee for Clinical Laboratory Standards (National Committee for Clinical Laboratory. Standards (2000). Methods for Dilution Antimicrobial Susceptibility Tests for Bacteria That Grow Aerobically-Fifth Edition: Approved Standard M7-A5. NCCLS, Wayne, Pa., USA).
(§2) In all cases the final concentration of DMSO incubated with the bacteria is less than or equal to 1%. […] Plates were incubated overnight at an appropriate temperature (30° C. or 37° C.) and optical densities assessed by eye. The MIC value is defined as the lowest compound concentration completely inhibiting visible growth of the test organism. When combinations between compounds of formula I with compounds of formula II and are evaluated the compounds of formula I are tested in dilution series as described above while the compounds of formula II and III-XIII were present in all wells at a constant concentration of 4 μg/mL each.

[2] = test system: Pseudomonas aeruginosa 1973E; settings: for MIC of antibiotic at fixed inhibitor concentration (4 mg/L): MIC of antibiotic compound 1 with the labelled bridged monobactam of formula II and clavulanate, 4 mg/L each
Method in brief: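 Compounds were serially diluted per NCCLS M7-A5 (final DMSO no more than 1%) and incubated with bacteria overnight at 30° C. or 37° C. Visible growth was then judged by eye. For combinations, partner compounds sat in every well at a constant 4 μg/mL each.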

Serratia marcescens S6 = settings: for MIC of antibiotic at fixed inhibitor concentration (4 mg/L): MIC of antibiotic compound 1 with the labelled bridged monobactam of formula II and clavulanate, 4 mg/L each
Enterobacter cloacae P99 = settings: for MIC of antibiotic at fixed inhibitor concentration (4 mg/L): MIC of antibiotic compound 1 with the labelled bridged monobactam of formula II and clavulanate, 4 mg/L each
Protocol: as §1, §2

[3] = test system: Klebsiella pneumoniae CF104; settings: for MIC of antibiotic at fixed inhibitor concentration (4 mg/L): MIC of antibiotic compound 1 with the labelled bridged monobactam of formula II and clavulanate, 4 mg/L each
[4] = test system: Stenotrophomonas malthophilia 1AC736; settings: for MIC of antibiotic at fixed inhibitor concentration (4 mg/L): Stenotrophomonas malthophilia 1AC736, MIC of antibiotic compound 1 with the labelled bridged monobactam of formula II and clavulanate, 4 mg/L each
[5] = with clavulanate (clavulanic acid)

## CC1(C)S[C@@H]2[C@H](NC(=O)[C@H](N)c3ccc(O)cc3)C(=O)N2[C@H]1C(=O)O [Amoxicillin, amoxicillin, reference compound]
Acinetobacter sp. J2; Acinetobacter baumannii J2, with clavulanate (clavulanic acid)
  MIC of antibiotic at fixed inhibitor concentration of 4 mg/L: >32 µg/mL
[1]; [5]
  MIC of antibiotic at fixed inhibitor concentration of 4 mg/L: >32 µg/mL
[2]; [5]
  MIC of antibiotic at fixed inhibitor concentration of 4 mg/L: >32 µg/mL
Serratia marcescens S6; [5]
  MIC of antibiotic at fixed inhibitor concentration of 4 mg/L: >32 µg/mL
Enterobacter cloacae P99; [5]
  MIC of antibiotic at fixed inhibitor concentration of 4 mg/L: >32 µg/mL
[3]; [5]
  MIC of antibiotic at fixed inhibitor concentration of 4 mg/L: 32 µg/mL
[4]; Stenotrophomonas maltophilia 1AC736, with clavulanate (clavulanic acid)
  MIC of antibiotic at fixed inhibitor concentration of 4 mg/L: >32 µg/mL

## Nc1cc[n+](CC(=O)N2CC[C@@H]3[C@H]2C(=O)N3S(=O)(=O)[O-])cc1 [Compound 103, (1S,5R)-2-[2-(4-aminopyridinium)acetyl]-7-oxo-2,6-diazabicyclo[3.2.0]heptane-6-sulfonate, inner salt]
Acinetobacter sp. J2
  MIC of antibiotic at fixed inhibitor concentration (4 mg/L): 8 µg/mL
[1]
  MIC of antibiotic at fixed inhibitor concentration (4 mg/L): 8 µg/mL
[2]
  MIC of antibiotic at fixed inhibitor concentration (4 mg/L): 4 µg/mL
Serratia marcescens S6
  MIC of antibiotic at fixed inhibitor concentration (4 mg/L): 0.25 µg/mL
Enterobacter cloacae P99
  MIC of antibiotic at fixed inhibitor concentration (4 mg/L): 32 µg/mL
[3]
  MIC of antibiotic at fixed inhibitor concentration (4 mg/L): 0.5 µg/mL
[4]
  MIC of antibiotic at fixed inhibitor concentration (4 mg/L): 0.125 µg/mL

## Nc1ccc[n+](CC(=O)N2CC[C@@H]3[C@H]2C(=O)N3S(=O)(=O)[O-])c1 [Compound 107, (1S,5R)-2-[2-(3-aminopyridinium)acetyl]-7-oxo-2,6-diazabicyclo[3.2.0]heptane-6-sulfonate, inner salt]
Acinetobacter sp. J2
  MIC of antibiotic at fixed inhibitor concentration (4 mg/L): 8 µg/mL
[1]
  MIC of antibiotic at fixed inhibitor concentration (4 mg/L): 8 µg/mL
[2]
  MIC of antibiotic at fixed inhibitor concentration (4 mg/L): 4 µg/mL
Serratia marcescens S6
  MIC of antibiotic at fixed inhibitor concentration (4 mg/L): 0.125 µg/mL
Enterobacter cloacae P99
  MIC of antibiotic at fixed inhibitor concentration (4 mg/L): 32 µg/mL
[3]
  MIC of antibiotic at fixed inhibitor concentration (4 mg/L): 1 µg/mL
[4]
  MIC of antibiotic at fixed inhibitor concentration (4 mg/L): 0.125 µg/mL

## NC(=O)OCC1C(NC(=O)C(=NOCc2cc(=O)c(O)cn2O)c2csc(N)n2)C(=O)N1OS(=O)(=O)O (centres unmarked) [Compound 25]
Acinetobacter sp. J2; Acinetobacter baumannii J2, antibiotic alone, no inhibitor
  MIC of antibiotic: >32 µg/mL
Acinetobacter sp. J2; Acinetobacter baumannii J2, with 102 and clavulanate
  MIC of antibiotic at fixed inhibitor concentration of 4 mg/L: 16 µg/mL
Acinetobacter sp. J2; Acinetobacter baumannii J2, with 324 and clavulanate
  MIC of antibiotic at fixed inhibitor concentration of 4 mg/L: >32 µg/mL
[1]; antibiotic alone, no inhibitor
  MIC of antibiotic: >32 µg/mL
[1]; with 102 and clavulanate
  MIC of antibiotic at fixed inhibitor concentration of 4 mg/L: 4 µg/mL
[1]; with 324 and clavulanate
  MIC of antibiotic at fixed inhibitor concentration of 4 mg/L: 8 µg/mL
[2]; antibiotic alone, no inhibitor
  MIC of antibiotic: 16 µg/mL
[2]; with 102 and clavulanate
  MIC of antibiotic at fixed inhibitor concentration of 4 mg/L: 4 µg/mL
[2]; with 324 and clavulanate
  MIC of antibiotic at fixed inhibitor concentration of 4 mg/L: 8 µg/mL
Serratia marcescens S6; antibiotic alone, no inhibitor
  MIC of antibiotic: 1 µg/mL
Serratia marcescens S6; with 102 and clavulanate
  MIC of antibiotic at fixed inhibitor concentration of 4 mg/L: 1 µg/mL
Serratia marcescens S6; with 324 and clavulanate
  MIC of antibiotic at fixed inhibitor concentration of 4 mg/L: 1 µg/mL
Enterobacter cloacae P99; antibiotic alone, no inhibitor
  MIC of antibiotic: >32 µg/mL
Enterobacter cloacae P99; with 102 and clavulanate
  MIC of antibiotic at fixed inhibitor concentration of 4 mg/L: 8 µg/mL
Enterobacter cloacae P99; with 324 and clavulanate
  MIC of antibiotic at fixed inhibitor concentration of 4 mg/L: 4 µg/mL
[3]; antibiotic alone, no inhibitor
  MIC of antibiotic: >32 µg/mL
[3]; with 102 and clavulanate
  MIC of antibiotic at fixed inhibitor concentration of 4 mg/L: 0.5 µg/mL
[3]; with 324 and clavulanate
  MIC of antibiotic at fixed inhibitor concentration of 4 mg/L: 0.5 µg/mL
[4]; Stenotrophomonas maltophilia 1AC736, antibiotic alone, no inhibitor
  MIC of antibiotic: 4 µg/mL
[4]; Stenotrophomonas maltophilia 1AC736, with 102 and clavulanate
  MIC of antibiotic at fixed inhibitor concentration of 4 mg/L: 1 µg/mL
[4]; Stenotrophomonas maltophilia 1AC736, with 324 and clavulanate
  MIC of antibiotic at fixed inhibitor concentration of 4 mg/L: 1 µg/mL

## CN(C)c1ccc(NC(=O)N2CC[C@@H]3[C@H]2C(=O)N3S(=O)(=O)[O-])cc1.[Na+] [Compound 309, Sodium(1S,5R)-2-{N-[4-(dimethylamino)phenyl]carbamoyl}-7-oxo-2,6-diazabicyclo[3.2.0]heptane-6-sulfonate]
Acinetobacter sp. J2
  MIC of antibiotic at fixed inhibitor concentration (4 mg/L): >32 µg/mL
[1]
  MIC of antibiotic at fixed inhibitor concentration (4 mg/L): >32 µg/mL
[2]
  MIC of antibiotic at fixed inhibitor concentration (4 mg/L): 4 µg/mL
Serratia marcescens S6
  MIC of antibiotic at fixed inhibitor concentration (4 mg/L): 0.5 µg/mL
Enterobacter cloacae P99
  MIC of antibiotic at fixed inhibitor concentration (4 mg/L): 32 µg/mL
[3]
  MIC of antibiotic at fixed inhibitor concentration (4 mg/L): 2 µg/mL
[4]
  MIC of antibiotic at fixed inhibitor concentration (4 mg/L): 0.125 µg/mL

## Cc1ccc(C(N)=O)c[n+]1CC(=O)N1CC[C@@H]2[C@H]1C(=O)N2S(=O)(=O)[O-] [Compound 111, (1S,5R)-2-[2-(3-carbamoyl-6-methylpyridinium)acetyl]-7-oxo-2,6-diazabicyclo[3.2.0]heptane-6-sulfonate, inner salt]
Acinetobacter sp. J2
  MIC of antibiotic at fixed inhibitor concentration (4 mg/L): 4 µg/mL
[1]
  MIC of antibiotic at fixed inhibitor concentration (4 mg/L): 8 µg/mL
[2]
  MIC of antibiotic at fixed inhibitor concentration (4 mg/L): 4 µg/mL
Serratia marcescens S6
  MIC of antibiotic at fixed inhibitor concentration (4 mg/L): 0.25 µg/mL
Enterobacter cloacae P99
  MIC of antibiotic at fixed inhibitor concentration (4 mg/L): 4 µg/mL
[3]
  MIC of antibiotic at fixed inhibitor concentration (4 mg/L): <0.06 µg/mL
[4]
  MIC of antibiotic at fixed inhibitor concentration (4 mg/L): 0.125 µg/mL
